Experimental data: ChEMBL document CHEMBL4052760, “Synthesis, antioxidant and antiproliferative activities of 1,3,4-thiadiazoles derived from phenolic acids” (Bioorg Med Chem Lett, 2017)
Active and inactive are the calls of the source. The calls are words filed in the database; no cut-off is given here.

Columns and labels:
[1] = tested on: HL-60; test: Induction of apoptosis in human HL60 cells assessed as nuclear fragmentation at 2 times IC50 measured after 24 hrs by acridine orange/ethidium bromide staining-based fluorescence microscopic method; format: functional, cell-based
[2] = tested on: HL-60; test: Induction of cell death in human HL60 cells assessed as decrease in percentage of cells in subG1 phase at 2 times IC50 pretreated for 72 hrs followed by caspase-8 inhibitor Z-IETD-FMK addition measured after 24 hrs by propidium iodide-staining based FACS analysis; format: functional
[3] = tested on: HL-60; test: Downregulation of VEGFA in human HL60 cells assessed as decrease in mRNA expression levels at 6.5 uM after 24 hrs by RT-PCR analysis; format: functional, cell-based
[4] = tested on: A549; test: Cytotoxicity against human A549 cells after 72 hrs by MTT assay; format: functional, cell-based; settings: A549, 72 h
[5] = tested on: HL-60; test: Downregulation of MMP9 in human HL60 cells assessed as decrease in mRNA expression levels at 6 uM after 24 hrs by RT-PCR analysis; format: functional, cell-based
[6] = Antioxidant activity assessed as DPPH radical scavenging activity after 30 mins in absence of light; format: functional
[7] = tested on: HL-60; test: Induction of cell death in human HL60 cells assessed as decrease in percentage of cells in subG1 phase at 2 times IC50 pretreated for 72 hrs followed by caspase-9 inhibitor Z-LEHD-FMK addition measured after 24 hrs by propidium iodide-staining based FACS analysis; format: functional
[8] = tested on: HL-60; test: Downregulation of MMP2 in human HL60 cells assessed as decrease in mRNA expression levels at 6.5 uM after 24 hrs by RT-PCR analysis; format: functional, cell-based
[9] = tested on: HL-60; test: Downregulation of MMP9 in human HL60 cells assessed as decrease in mRNA expression levels at 6.5 uM after 24 hrs by RT-PCR analysis; format: functional, cell-based
[10] = tested on: HL-60; test: Cytoprotective activity against H2O2-induced oxidative stress in human HL60 cells assessed as decrease in level of reactive oxygen species pretreated for 24 hrs at 6.5 uM followed by H2O2-stimulation for 30 mins by DCFH-DA staining-based FACS analysis; format: functional, cell-based
[11] = tested on: HL-60; test: Induction of cell death in human HL60 cells assessed as decrease in percentage of cells in subG1 phase at 2 times IC50 pretreated for 72 hrs followed by caspase-3 inhibitor Z-DEVD-FMK addition measured after 24 hrs by propidium iodide-staining based FACS analysis; format: functional
[12] = tested on: HL-60; test: Downregulation of VEGFA in human HL60 cells assessed as decrease in mRNA expression levels at 6 uM after 24 hrs by RT-PCR analysis; format: functional, cell-based
[13] = tested on: HL-60; test: Downregulation of MMP2 in human HL60 cells assessed as decrease in mRNA expression levels at 6 uM after 24 hrs by RT-PCR analysis; format: functional, cell-based
[14] = tested on: MRC5; test: Cytotoxicity against human MRC5 cells after 72 hrs by MTT assay; format: cell-based; settings: MRC5, 72 h
[15] = tested on: HL-60; test: Induction of apoptosis in human HL60 cells assessed as chromatin condensation at 2 times IC50 measured after 24 hrs by acridine orange/ethidium bromide staining-based fluorescence microscopic method; format: functional, cell-based
[16] = tested on: HL-60; test: Cytotoxicity against human HL60 cells after 72 hrs by MTT assay; format: functional, cell-based; settings: HL-60, 72 h
[17] = tested on: HeLa; test: Cytotoxicity against human HeLa cells after 72 hrs by MTT assay; format: functional, cell-based
[18] = tested on: EA.hy 926; test: Antiangiogenic activity against human EAhy926 cells assessed as inhibition of capillary-like tube formation at 30 uM measured after 20 hrs by inverted phase contrast microscopic analysis; format: functional, cell-based
[19] = tested on: HL-60; test: Induction of apoptosis in human HL60 cells assessed as secondary necrosis at 2 times IC50 measured after 24 hrs by acridine orange/ethidium bromide staining-based fluorescence microscopic method; format: functional, cell-based
[20] = tested on: HL-60; test: Cytoprotective activity against H2O2-induced oxidative stress in human HL60 cells assessed as decrease in level of reactive oxygen species pretreated for 24 hrs at 6.25 uM followed by H2O2-stimulation for 30 mins by DCFH-DA staining-based FACS analysis; format: functional, cell-based
[21] = tested on: HL-60; test: Cell cycle arrest in human HL60 cells assessed as accumulation at subG1 phase at 2 times IC50 after 24 hrs by FACS analysis; format: functional, cell-based
[22] = tested on: HL-60; test: Cytoprotective activity against H2O2-induced oxidative stress in human HL60 cells assessed as decrease in level of reactive oxygen species pretreated for 24 hrs at 6 uM followed by H2O2-stimulation for 30 mins by DCFH-DA staining-based FACS analysis; format: functional, cell-based
[23] = tested on: HL-60; test: Cell cycle arrest in human HL60 cells assessed as accumulation at subG1 phase at IC50 after 24 hrs by FACS analysis; format: functional, cell-based
[24] = tested on: EA.hy 926; test: Antiangiogenic activity against human EAhy926 cells assessed as inhibition of capillary-like tube formation at 50 uM measured after 20 hrs by inverted phase contrast microscopic analysis; format: functional, cell-based

| IC50 [6] [µM] | Compound | IC50 [4] [µM] | IC50 [14] [µM] | IC50 [16] [µM] | IC50 [17] [µM] | also measured |
| --- | --- | --- | --- | --- | --- | --- |
| 17.9 | O=C(Nc1nnc(-c2ccc(O)c(O)c2)s1)C12CC3CC(CC(C3)C1)C2 | 13 | 20.1 | 7.4 | 16.1 | Activity [1]: Active; Activity [2]: Active; Activity [3]: Active; Activity [5]: inactive; Activity [7]: inactive; Activity [8]: Active; Activity [9]: inactive; Activity [10]: Active; Activity [11]: Active; Activity [12]: Active; Activity [13]: Active; Activity [15]: Active; Activity [18]: Active; Activity [19]: Active |
| 53 | O=C(Nc1nnc(-c2ccc(O)c(O)c2)s1)c1ccc(Cl)cc1 | 14.6 | 30.6 | 14.7 | 47.3 | – |
| 36.1 | O=C(COc1ccccc1)Nc1nnc(-c2ccc(O)c(O)c2)s1 | 21.2 | 30.9 | 17.4 | 51.3 | – |
| 22.3 | O=C(Nc1nnc(-c2cccc(O)c2O)s1)c1ccccc1 | 12.3 | 23.2 | 20.7 | 21.8 | – |
| 38 | O=C1O[C@H]([C@@H](O)CO)C(O)=C1O [ASCORBIC ACID] | – | – | – | – | – |
| 16.6 | O=C(COc1ccccc1)Nc1nnc(-c2cccc(O)c2O)s1 | 10.5 | 33.9 | 11.2 | 117 | Activity [20]: Active |
| 111 | CC(=O)Nc1nnc(-c2cccc(O)c2O)s1 | 200 | 156 | 49 | 177 | – |
| 19.9 | O=C(Nc1nnc(-c2cccc(O)c2O)s1)C1CCCCC1 | 11 | 70.3 | 7.9 | 91.6 | Activity [20]: Active |
| 23.4 | O=C(Nc1nnc(-c2ccc(O)c(O)c2)s1)c1ccccc1 | 13 | 27.4 | 17.6 | 23.3 | – |
| 23.4 | CC(=O)Nc1nnc(-c2ccc(O)c(O)c2)s1 | 133 | 58.6 | 42.5 | 125 | – |
| 20.9 | O=C(Cc1ccccc1)Nc1nnc(-c2cccc(O)c2O)s1 | 11.8 | 45.3 | 13.9 | 120 | – |
| 34 | Cc1ccc(C(=O)Nc2nnc(-c3ccc(O)c(O)c3)s2)cc1 | 11.8 | 27.1 | 10.5 | 67.1 | – |
| 21.3 | O=C(Cc1ccccc1)Nc1nnc(-c2ccc(O)c(O)c2)s1 | 15.4 | 30.7 | 12 | 88.6 | – |
| 14.2 | O=C(Nc1nnc(-c2cccc(O)c2O)s1)C12CC3CC(CC(C3)C1)C2 | 12.8 | 27.7 | 7.3 | 21.4 | Activity [21]: Active; Activity [1]: Active; Activity [2]: Active; Activity [3]: Active; Activity [5]: inactive; Activity [7]: inactive; Activity [8]: Active; Activity [9]: inactive; Activity [11]: Active; Activity [12]: Active; Activity [22]: Active; Activity [23]: Active; Activity [13]: Active; Activity [15]: Active; Activity [18]: Active; Activity [19]: Active |
| 20.8 | CC(Cc1ccc(O)c(O)c1)C(C)Cc1ccc(O)c(O)c1 (stereo not given) [NORDIHYDROGUAIARETIC ACID] | – | – | – | – | – |
| 27.1 | Cc1ccc(C(=O)Nc2nnc(-c3cccc(O)c3O)s2)cc1 | 11.3 | 33.2 | 10.6 | 13.4 | Activity [1]: Active; Activity [2]: Active; Activity [3]: Active; Activity [24]: Active; Activity [5]: inactive; Activity [7]: inactive; Activity [8]: Active; Activity [9]: inactive; Activity [11]: Active; Activity [12]: Active; Activity [13]: Active; Activity [15]: Active; Activity [19]: Active |
| 30.2 | O=C(Nc1nnc(-c2cccc(O)c2O)s1)c1ccc(Cl)cc1 | 9.5 | 18.7 | 9.6 | 13 | Activity [1]: Active; Activity [2]: Active; Activity [3]: Active; Activity [24]: Active; Activity [5]: inactive; Activity [7]: inactive; Activity [8]: Active; Activity [9]: inactive; Activity [11]: Active; Activity [12]: Active; Activity [13]: Active; Activity [15]: Active; Activity [19]: Active |
| 37.3 | O=C(Nc1nnc(-c2ccc(O)c(O)c2)s1)C1CCCCC1 | 16.3 | 24 | 8.8 | 34.5 | – |
